SMILES strings stand for the structures. Numbers after ± are expanded uncertainties.

A short description of this data set: mn = molality of the nth substance listed, in mol/kg. As to conditions: 100 kPa, Liquid, Pycnometric method.

As to `O=[N+]([O-])[O-].[K+]` [potassium nitrate] + O, the mass density worked out at 1167 ± 12 kg/m3 (293.15 K, m1 = 3.129); 1217.1 ± 12 kg/m3 (303.15 K, m1 = 4.532); 1269.4 ± 13 kg/m3 (313.15 K, m1 = 6.615); 1321 ± 14 kg/m3 (323.15 K, m1 = 8.465).

Consider `[K+].[O]=[V](=[O])[O-]` [potassium vanadate] + O, for which the mass density by setting is: (293.15 K, m1 = 0.6199) 1060.4 ± 11 kg/m3; (303.15 K, m1 = 0.8756) 1081.6 ± 11 kg/m3; (313.15 K, m1 = 1.222) 1111 ± 11 kg/m3; (323.15 K, m1 = 1.908) 1156 ± 12 kg/m3.

Usually mass density stands for mass per unit of volume.
